In the OligoGym collection:
Oligonucleotides are given in HELM: sugar(base)linkage, 5' to 3'; d 2'-deoxyribose, r ribose, m 2'-O-methylribose, p phosphate. ss, as = sense and antisense strand

These substances were tested against UBE2D3 (assay: reporter assay of Huesken 2005). Conditions: siRNA.
Note: test concentration or dose not given here.

Substance	normalised inhibition (eCFP-eYFP dual reporter) [%]
RNA1{r(A)p.r(G)p.r(G)p.r(U)p.r(U)p.r(G)p.r(C)p.r(A)p.r(U)p.r(U)p.r(U)p.r(A)p.r(C)p.r(A)p.r(A)p.r(C)p.r(A)p.r(A)p.r(G)p.d(T)p.d(T)}|RNA2{r(C)p.r(U)p.r(U)p.r(G)p.r(U)p.r(U)p.r(G)p.r(U)p.r(A)p.r(A)p.r(A)p.r(U)p.r(G)p.r(C)p.r(A)p.r(A)p.r(C)p.r(C)p.r(U)p.d(T)p.d(A)}$$$RNA1{StrandType:ss}|RNA2{StrandType:as}$	86.6
RNA1{r(A)p.r(U)p.r(C)p.r(A)p.r(U)p.r(C)p.r(C)p.r(A)p.r(A)p.r(A)p.r(U)p.r(A)p.r(U)p.r(U)p.r(A)p.r(A)p.r(C)p.r(A)p.r(G)p.d(T)p.d(T)}|RNA2{r(C)p.r(U)p.r(G)p.r(U)p.r(U)p.r(A)p.r(A)p.r(U)p.r(A)p.r(U)p.r(U)p.r(U)p.r(G)p.r(G)p.r(A)p.r(U)p.r(G)p.r(A)p.r(U)p.d(A)p.d(A)}$$$RNA1{StrandType:ss}|RNA2{StrandType:as}$	32
RNA1{r(A)p.r(U)p.r(C)p.r(C)p.r(A)p.r(A)p.r(A)p.r(C)p.r(C)p.r(C)p.r(A)p.r(G)p.r(A)p.r(U)p.r(G)p.r(A)p.r(C)p.r(C)p.r(C)p.d(T)p.d(T)}|RNA2{r(G)p.r(G)p.r(G)p.r(U)p.r(C)p.r(A)p.r(U)p.r(C)p.r(U)p.r(G)p.r(G)p.r(G)p.r(U)p.r(U)p.r(U)p.r(G)p.r(G)p.r(A)p.r(U)p.d(C)p.d(A)}$$$RNA1{StrandType:ss}|RNA2{StrandType:as}$	44.5
RNA1{r(A)p.r(U)p.r(C)p.r(C)p.r(A)p.r(U)p.r(U)p.r(U)p.r(G)p.r(U)p.r(U)p.r(C)p.r(A)p.r(C)p.r(U)p.r(G)p.r(C)p.r(U)p.r(A)p.d(T)p.d(T)}|RNA2{r(U)p.r(A)p.r(G)p.r(C)p.r(A)p.r(G)p.r(U)p.r(G)p.r(A)p.r(A)p.r(C)p.r(A)p.r(A)p.r(A)p.r(U)p.r(G)p.r(G)p.r(A)p.r(U)p.d(A)p.d(A)}$$$RNA1{StrandType:ss}|RNA2{StrandType:as}$	96.1
RNA1{r(A)p.r(U)p.r(G)p.r(U)p.r(U)p.r(U)p.r(C)p.r(A)p.r(U)p.r(U)p.r(G)p.r(G)p.r(C)p.r(A)p.r(A)p.r(G)p.r(C)p.r(C)p.r(A)p.d(T)p.d(T)}|RNA2{r(U)p.r(G)p.r(G)p.r(C)p.r(U)p.r(U)p.r(G)p.r(C)p.r(C)p.r(A)p.r(A)p.r(U)p.r(G)p.r(A)p.r(A)p.r(A)p.r(C)p.r(A)p.r(U)p.d(A)p.d(T)}$$$RNA1{StrandType:ss}|RNA2{StrandType:as}$	90.7
RNA1{r(A)p.r(U)p.r(U)p.r(A)p.r(A)p.r(C)p.r(A)p.r(G)p.r(U)p.r(A)p.r(A)p.r(U)p.r(G)p.r(G)p.r(C)p.r(A)p.r(G)p.r(C)p.r(A)p.d(T)p.d(T)}|RNA2{r(U)p.r(G)p.r(C)p.r(U)p.r(G)p.r(C)p.r(C)p.r(A)p.r(U)p.r(U)p.r(A)p.r(C)p.r(U)p.r(G)p.r(U)p.r(U)p.r(A)p.r(A)p.r(U)p.d(A)p.d(T)}$$$RNA1{StrandType:ss}|RNA2{StrandType:as}$	57.6
RNA1{r(A)p.r(U)p.r(U)p.r(A)p.r(U)p.r(G)p.r(G)p.r(G)p.r(A)p.r(C)p.r(C)p.r(U)p.r(A)p.r(A)p.r(U)p.r(G)p.r(A)p.r(C)p.r(A)p.d(T)p.d(T)}|RNA2{r(U)p.r(G)p.r(U)p.r(C)p.r(A)p.r(U)p.r(U)p.r(A)p.r(G)p.r(G)p.r(U)p.r(C)p.r(C)p.r(C)p.r(A)p.r(U)p.r(A)p.r(A)p.r(U)p.d(T)p.d(G)}$$$RNA1{StrandType:ss}|RNA2{StrandType:as}$	64.1
RNA1{r(A)p.r(U)p.r(U)p.r(U)p.r(A)p.r(C)p.r(A)p.r(A)p.r(C)p.r(A)p.r(A)p.r(G)p.r(A)p.r(A)p.r(U)p.r(U)p.r(U)p.r(A)p.r(U)p.d(T)p.d(T)}|RNA2{r(A)p.r(U)p.r(A)p.r(A)p.r(A)p.r(U)p.r(U)p.r(C)p.r(U)p.r(U)p.r(G)p.r(U)p.r(U)p.r(G)p.r(U)p.r(A)p.r(A)p.r(A)p.r(U)p.d(G)p.d(C)}$$$RNA1{StrandType:ss}|RNA2{StrandType:as}$	74.4
RNA1{r(A)p.r(U)p.r(U)p.r(U)p.r(A)p.r(U)p.r(C)p.r(A)p.r(U)p.r(C)p.r(C)p.r(A)p.r(A)p.r(A)p.r(U)p.r(A)p.r(U)p.r(U)p.r(A)p.d(T)p.d(T)}|RNA2{r(U)p.r(A)p.r(A)p.r(U)p.r(A)p.r(U)p.r(U)p.r(U)p.r(G)p.r(G)p.r(A)p.r(U)p.r(G)p.r(A)p.r(U)p.r(A)p.r(A)p.r(A)p.r(U)p.d(T)p.d(C)}$$$RNA1{StrandType:ss}|RNA2{StrandType:as}$	76.2
RNA1{r(C)p.r(A)p.r(A)p.r(G)p.r(A)p.r(A)p.r(U)p.r(U)p.r(U)p.r(A)p.r(U)p.r(C)p.r(A)p.r(U)p.r(C)p.r(C)p.r(A)p.r(A)p.r(A)p.d(T)p.d(T)}|RNA2{r(U)p.r(U)p.r(U)p.r(G)p.r(G)p.r(A)p.r(U)p.r(G)p.r(A)p.r(U)p.r(A)p.r(A)p.r(A)p.r(U)p.r(U)p.r(C)p.r(U)p.r(U)p.r(G)p.d(T)p.d(T)}$$$RNA1{StrandType:ss}|RNA2{StrandType:as}$	93.1
RNA1{r(C)p.r(A)p.r(A)p.r(G)p.r(C)p.r(C)p.r(A)p.r(C)p.r(A)p.r(A)p.r(U)p.r(U)p.r(A)p.r(U)p.r(G)p.r(G)p.r(G)p.r(A)p.r(C)p.d(T)p.d(T)}|RNA2{r(G)p.r(U)p.r(C)p.r(C)p.r(C)p.r(A)p.r(U)p.r(A)p.r(A)p.r(U)p.r(U)p.r(G)p.r(U)p.r(G)p.r(G)p.r(C)p.r(U)p.r(U)p.r(G)p.d(C)p.d(C)}$$$RNA1{StrandType:ss}|RNA2{StrandType:as}$	35.2
RNA1{r(C)p.r(A)p.r(A)p.r(G)p.r(G)p.r(C)p.r(G)p.r(G)p.r(U)p.r(G)p.r(U)p.r(A)p.r(U)p.r(U)p.r(C)p.r(U)p.r(U)p.r(U)p.r(U)p.d(T)p.d(T)}|RNA2{r(A)p.r(A)p.r(A)p.r(A)p.r(G)p.r(A)p.r(A)p.r(U)p.r(A)p.r(C)p.r(A)p.r(C)p.r(C)p.r(G)p.r(C)p.r(C)p.r(U)p.r(U)p.r(G)p.d(A)p.d(T)}$$$RNA1{StrandType:ss}|RNA2{StrandType:as}$	104
RNA1{r(C)p.r(A)p.r(A)p.r(U)p.r(U)p.r(U)p.r(C)p.r(U)p.r(A)p.r(A)p.r(A)p.r(G)p.r(U)p.r(U)p.r(C)p.r(U)p.r(U)p.r(U)p.r(U)p.d(T)p.d(T)}|RNA2{r(A)p.r(A)p.r(A)p.r(A)p.r(G)p.r(A)p.r(A)p.r(C)p.r(U)p.r(U)p.r(U)p.r(A)p.r(G)p.r(A)p.r(A)p.r(A)p.r(U)p.r(U)p.r(G)p.d(T)p.d(T)}$$$RNA1{StrandType:ss}|RNA2{StrandType:as}$	80.6
RNA1{r(C)p.r(A)p.r(G)p.r(C)p.r(A)p.r(C)p.r(A)p.r(A)p.r(U)p.r(G)p.r(U)p.r(U)p.r(C)p.r(U)p.r(G)p.r(C)p.r(A)p.r(G)p.r(G)p.d(T)p.d(T)}|RNA2{r(C)p.r(C)p.r(U)p.r(G)p.r(C)p.r(A)p.r(G)p.r(A)p.r(A)p.r(C)p.r(A)p.r(U)p.r(U)p.r(G)p.r(U)p.r(G)p.r(C)p.r(U)p.r(G)p.d(G)p.d(A)}$$$RNA1{StrandType:ss}|RNA2{StrandType:as}$	87.8
